Legend:
Assay type in all cases: organism-based
Details in all cases: in vivo
[1] = Toxicity in Balb/c nude mouse xenografted with human MDA-MB-231 cells assessed as normal inquisitiveness at 20 mg/kg, ip QD
[2] = Toxicity in Balb/c nude mouse xenografted with human MDA-MB-231 cells assessed as adverse effect at 20 mg/kg, ip QD
[3] = Toxicity in Balb/c nude mouse xenografted with human MDA-MB-231 cells assessed as change in body weight at 20 mg/kg, ip QD
[4] = Toxicity in Balb/c nude mouse xenografted with human MDA-MB-231 cells assessed as dose toleration at 20 mg/kg, ip QD
[5] = Toxicity in Balb/c nude mouse xenografted with human MDA-MB-231 cells assessed as normal feeding at 20 mg/kg, ip QD

Measured: Activity

CNCc1ccccc1CN(CC(=O)Nc1ccc2c(c1)CC1(C2)C(=O)Nc2ncccc21)C(=O)C(C)(C)C (stereo not given)
Non-Toxic: [1] | [2] | [3] | [4] | [5]
